Like-named read-outs stand apart in the source and are kept apart here.

Assay [1] concerns Smn protein. Kind of assay: Smn protein assay in cultured cells (SMN HTRF). Type of assay: cell-based, human. Particulars: 48 hours; for EC1.5x (concentration giving 1.5-fold Smn protein increase): SMA Type 1 patient fibroblast cells (GM03813), 7-point concentration curve, SMN HTRF, concentration producing 1.5 times Smn protein vs DMSO vehicle control, read-out: EC1.5x for Smn protein expression; for maximum fold (Fold) increase of Smn protein: SMA patient fibroblast cells, 7-point concentration data, fold increase relative to vehicle control (SMN HTRF). A digest of the protocol:
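Smn in SMA fibroblast lysates, measured by anti-SMN HTRF after 48 h compound exposure; EC1.5x from fold change over vehicle.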
On the technique in general: In TR-FRET formats the signal depends on donor and acceptor labels being close together.

Assay [2] concerns SMN2 minigene (full length SMN2 minigene mRNA containing SMN2 exon 7). Kind of assay: SMN2 minigene mRNA splicing RT-qPCR assay in cultured cells. The assay is classed as cell-based, human. Particulars: for EC (1.5-fold): Homo sapiens, HEK293-H, read-out: EC1.5x for production of full length SMN2 mRNA. In a few lines:
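Lysates → one-step RT-qPCR, minigene-specific primers (0.4 μM final) + GAPDH multiplex, 40 cycles. FL/GAPDH vs DMSO; EC1.5x, star-binned.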

Setting [3] is: HEK293H cells stably transfected with SMN2-A minigene, 24 hours, 7-point concentration curve, 1.5-fold relative to vehicle-treated cells.

Take `Cc1cn2cc(-c3cc4ccc(CCCNCCO)cc4oc3=O)nc2c(C)n1` [Compound 879, 3-(6,8-dimethylimidazo[1,2-a]pyrazin-2-yl)-7-{3-[(2-hydroxyethyl)amino]propyl}-2H-chromen-2-one]: in assay [1], the EC1.5x (concentration giving 1.5-fold Smn protein increase) was less than 300 nM; the “maximum fold (Fold) increase of Smn protein” value (from here on “maximum fold (Fold) increase”) was “**** (fold increase between >1.5 and ≤1.65)”. In addition, in assay [2] (setting [3]), the EC (1.5-fold) was less than 0.1 µM.

For `CN1CCN(c2ccc3cc(-c4nc5ncccc5o4)c(=O)oc3c2)CC1` [Compound 111, 7-(4-methylpiperazin-1-yl)-3-([1,3]oxazolo[4,5-b]pyridin-2-yl)-2H-chromen-2-one], the “maximum fold (Fold) increase” value in assay [1] was “** (fold increase between >1.2 and ≤1.35)”. Moreover, the EC (1.5-fold) in assay [2] (setting [3]) fell in the range of 3 to 30 µM.

Consider `CSc1nccn2cc(-c3cc4ccc(N5CCCN(C)CC5)cc4oc3=O)nc12` [Compound 401, 7-(4-methyl-1,4-diazepan-1-yl)-3-[8-(methylsulfanyl)imidazo[1,2-a]pyrazin-2-yl]-2H-chromen-2-one], for which the “maximum fold (Fold) increase” value in assay [1] is reported as “* (maximum fold increase of ≤1.2)”. In assay [2] (setting [3]), the EC (1.5-fold) lay in the range of 1 to 3 µM.

Take `Cc1cn2cc(-c3cc4ccc(N5CCN[C@H](C)C5)cc4oc3=O)ccc2n1` [Compound 652, 3-(2-methylimidazo[1,2-a]pyridin-6-yl)-7-[(3R)-3-methylpiperazin-1-yl]-2H-chromen-2-one]: in assay [1], the EC1.5x (concentration giving 1.5-fold Smn protein increase) is less than 300 nM; the “maximum fold (Fold) increase” value was “**** (fold increase between >1.5 and ≤1.65)”. The EC (1.5-fold) in assay [2] (setting [3]) is less than 0.1 µM.

As for `CN(C)[C@H]1[C@@H]2CN(c3ccc4cc(-c5cn6cccnc6n5)c(=O)oc4c3)C[C@@H]21` [Compound 439, 7-[(1R,5S,6s)-6-(dimethylamino)-3-azabicyclo[3.1.0]hex-3-yl]-3-(imidazo[1,2-a]pyrimidin-2-yl)-2H-chromen-2-one], in assay [1], the “maximum fold (Fold) increase” value is “** (fold increase between >1.2 and ≤1.35)”. Further, the “EC1.5x for production of full length SMN2 mRNA” value in assay [2] (setting [3]) is “* (between >3 μM and ≤30 μM)”.

On to `Cc1cn2cc(-c3cc4ccc(N5CCNCC5)cc4oc3=O)cc(F)c2n1` [Compound 986, 3-(8-fluoro-2-methylimidazo[1,2-a]pyridin-6-yl)-7-(piperazin-1-yl)-2H-chromen-2-one], for which, in assay [1], the EC1.5x (concentration giving 1.5-fold Smn protein increase) was less than 300 nM and the “maximum fold (Fold) increase” value is reported as “***** (fold increase >1.65)”. Besides, the EC (1.5-fold) in assay [2] (setting [3]) is less than 0.1 µM.

Take `CC1CN(c2ccc3cc(-c4nc5ccccc5o4)c(=O)oc3c2)C(C)CN1` (stereo not drawn) [Compound 86, 3-(1,3-benzoxazol-2-yl)-7-(2,5-dimethylpiperazin-1-yl)-2H-chromen-2-one]: in assay [1], the “maximum fold (Fold) increase” value is recorded as “* (maximum fold increase of ≤1.2)”. The EC (1.5-fold) in assay [2] (setting [3]) fell in the range of 3 to 30 µM.

As for `CCCN1CCN(c2ccc3cc(-c4cc5ccccn5n4)c(=O)oc3c2)CC1` [Compound 195, 7-(4-propylpiperazin-1-yl)-3-(pyrazolo[1,5-a]pyridin-2-yl)-2H-chromen-2-one], the “maximum fold (Fold) increase” value in assay [1] is reported as “* (maximum fold increase of ≤1.2)”. The EC (1.5-fold) in assay [2] (setting [3]) is 1 to 3 µM.

For `Cc1cn2cc(-c3cc4ccc(N5CCC(C#N)CC5)cc4oc3=O)nc2c(C)n1` [Compound 974, 1-[3-(6,8-dimethylimidazo[1,2-a]pyrazin-2-yl)-2-oxo-2H-chromen-7-yl]piperidine-4-carbonitrile], in assay [1], the “maximum fold (Fold) increase” value was “** (fold increase between >1.2 and ≤1.35)”. Further, the EC (1.5-fold) in assay [2] (setting [3]) lay within 3 to 30 µM.

As for `Cc1csc(-c2cc3ccc(N4CCNCC4)cc3oc2=O)n1` [Compound 37, 3-(4-methyl-1,3-thiazol-2-yl)-7-(piperazin-1-yl)-2H-chromen-2-one], the “maximum fold (Fold) increase” value in assay [1] is “** (fold increase between >1.2 and ≤1.35)”. Also, the EC (1.5-fold) in assay [2] (24 h) lay in the range of 1 to 3 µM.

Turning to `Cc1cn2cc(-c3cc4ccc(N5CCC6(CC5)CNC6)cc4oc3=O)nc2c(C)n1` [Compound 976, 7-(2,7-diazaspiro[3.5]non-7-yl)-3-(6,8-dimethylimidazo[1,2-a]pyrazin-2-yl)-2H-chromen-2-one], in assay [1], the EC1.5x (concentration giving 1.5-fold Smn protein increase) lay in the range of 1000 to 3000 nM; the “maximum fold (Fold) increase” value is “*** (fold increase between >1.35 and ≤1.5)”. The EC (1.5-fold) in assay [2] (setting [3]) was less than 0.1 µM.

As for `Cc1nc2ccc(-c3cc4ccc(N5CCN[C@@H](C)C5)cc4oc3=O)cc2s1` [Compound 770, 3-(2-methyl-1,3-benzothiazol-6-yl)-7-[(3S)-3-methylpiperazin-1-yl]-2H-chromen-2-one], in assay [1], the EC1.5x (concentration giving 1.5-fold Smn protein increase) is less than 300 nM; the “maximum fold (Fold) increase” value is “**** (fold increase between >1.5 and ≤1.65)”. Also, in assay [2] (setting [3]), the EC (1.5-fold) was less than 0.1 µM.

As for `C[C@H]1CN(c2ccc3cc(-c4cc5ccccn5c4)c(=O)oc3c2)CCN1` [Compound 565, 3-(indolizin-2-yl)-7-[(3S)-3-methylpiperazin-1-yl]-2H-chromen-2-one], the “maximum fold (Fold) increase” value in assay [1] is recorded as “* (maximum fold increase of ≤1.2)”. Besides, in assay [2] (setting [3]), the EC (1.5-fold) was in the range of 1 to 3 µM.

For the compound `Cc1cn2cc(-c3cc4ccc(N5CCN[C@H](C)C5)cc4oc3=O)nc2cn1` [Compound 570, 3-(6-methylimidazo[1,2-a]pyrazin-2-yl)-7-[(3R)-3-methylpiperazin-1-yl]-2H-chromen-2-one], in assay [1], the EC1.5x (concentration giving 1.5-fold Smn protein increase) was less than 300 nM and the “maximum fold (Fold) increase” value was “***** (fold increase >1.65)”. The EC (1.5-fold) in assay [2] (setting [3]) is less than 0.1 µM.

Take `O=c1oc2cc(N3CCNCC3)ccc2cc1-c1cn2ccc(C(F)(F)F)cc2n1` [Compound 114, 7-(piperazin-1-yl)-3-[7-(trifluoromethyl)imidazo[1,2-a]pyridin-2-yl]-2H-chromen-2-one]: the “maximum fold (Fold) increase” value in assay [1] was “** (fold increase between >1.2 and ≤1.35)”. Moreover, in assay [2] (setting [3]), the EC (1.5-fold) was less than 0.1 µM.

As to `Cl.O=c1oc2cc(N3CCNCC3)ccc2cc1-c1ccnc(C2CC2)n1` [Compound 278, 3-(2-cyclopropylpyrimidin-4-yl)-7-(piperazin-1-yl)-2H-chromen-2-one hydrochloride], the “maximum fold (Fold) increase” value in assay [1] is “* (maximum fold increase of ≤1.2)”. For the same compound, the EC (1.5-fold) in assay [2] (setting [3]) is 0.3 to 1 µM.

With `O=C(O)C(F)(F)F.O=c1oc2cc(N3CCNCC3)ccc2cc1-c1nc2c(C(F)(F)F)cccc2o1` [Compound 1, 7-(piperazin-1-yl)-3[4-(trifluoromethyl)-1,3-benzoxazol-2-yl]-2H-chromen-2-one trifluoroacetate], in assay [1], the “maximum fold (Fold) increase” value is reported as “* (maximum fold increase of ≤1.2)”. Further, the EC (1.5-fold) in assay [2] (setting [3]) lay within 0.3 to 1 µM.

As for `COc1ccc(-c2cc3ccc(N4CCNC[C@@H]4C)cc3oc2=O)cc1OC` [Compound 472, 3-(3,4-dimethoxyphenyl)-7-[(2S)-2-methylpiperazin-1-yl]-2H-chromen-2-one], the “maximum fold (Fold) increase” value in assay [1] is reported as “* (maximum fold increase of ≤1.2)”. Besides, the EC (1.5-fold) in assay [2] (setting [3]) fell in the range of 1 to 3 µM.

For the compound `Cc1cn2cc(-c3cc4ccc(N5CCN[C@H](C)C5)cc4oc3=O)nc2c(C)n1` [Cpd 536, 3-(6,8-dimethylimidazo[1,2-a]pyrazin-2-yl)-7-[(3R)-3-methylpiperazin-1-yl]-2H-chromen-2-one], in assay [1], the EC1.5x (concentration giving 1.5-fold Smn protein increase) was less than 300 nM and the “maximum fold (Fold) increase” value is “***** (fold increase >1.65)”. In addition, in assay [2] (setting [3]), the EC (1.5-fold) is less than 0.1 µM.
